Experimental data published in patent US9115145B2, “Tocotrienol derivatives and associated methods” (FIRST TECH INTERNATIONAL LIMITED, priority 2011, dated 2015).
Like-named read-outs stand apart in the source and are kept apart here.

Tests used:
[1] = test system: MDA-MB-231 human breast cancer cell line; assay: MTT assay of MDA-MB-231 cells; format: cell-based; details: Homo sapiens, media containing 5% fetal bovine serum
Description: (§1) MDA-MB-231 and MCF7 cells were plated at a density of 8×10^3 cells/well and 10^4 cells/well in 96-well culture plates, respectively. The compounds were fed in serum free media containing 5% and 1% fetal bovine serum for MDA-MB-231 and MCF7 cells, respectively.

[2] = test system: MCF 10A non-tumorigenic mammary epithelial cells; assay: MTT assay of MCF10A cells; format: cell-based, human; details: for IC50: Homo sapiens; for Selectivity index: IC50 for MCF 10A divided by IC50 for +SA cell line
Description: MCF 10A (ATCC cat # CRL-10317) normal human non-tumorigenic mammary epithelial cells were maintained in serum-free defined medium consisting of Dulbecco's modified Eagle's medium (DMEM)/F12 containing 5% horse serum, 1% penicillin/streptomycin, 0.5 μg/mL hydrocortisone, 100 ng/mL cholera toxin, 10 μg/mL insulin, and 20 ng/mL epidermal growth factor (rhEGF). For subculturing, cells were rinsed twice with sterile Ca2+ and Mg2+-free phosphate buffered saline (PBS) and incubated in 0.25% trypsin containing 0.025% EDTA in PBS for 5 min at 37° C. The released cells were centrifuged, re-suspended in fresh media and counted using a hemocytometer. For testing, MCF 10A cells were plated at a density of 10×10^4 cells/well. A stock solution of the compounds was prepared in DMSO. DMSO was added to all treatment media such that the final DMSO concentration was the same in all treatment groups within a given experiment and was always less than 0.1%. The compounds were fed in serum free media. MCF10A mammary epithelial cell's viable number was determined by MTT colorimetric assay. […] IC50 values were calculated by non-linear regression using statistical software. The selectivity index indicated in the table represents the IC50 value for the MCF 10A cell line divided by the IC50 value for the +SA cell line.

[3] = test system: MDA-MB-231 human breast cancer cells; assay: Wound-healing assay (cell migration); format: cell-based; details: Homo sapiens; for inhibition at 5 µM: MDA-MB-231, 24 h, wound-healing assay; for IC50: MDA-MB-231, wound-healing assay, dose response, read-out: IC50 antimigratory activity
Description: The highly metastatic human breast cancer MDA-MB-231 cells were cultured in RPMI 1640 medium containing 10 mM HEPES, 4 mM L-glutamine, 10% fetal bovine serum, penicillin (100 IU/mL), and streptomycin (50 μg/mL), and grown in a 5% CO2 atmosphere at 37° C. Cells were plated onto sterile 24-well and allowed to recover for a confluent cell monolayer formed in each well (>95% confluence). Wounds were then inflicted to each cell monolayer using a sterile 200 μL pipette tip. Media were removed, cells monolayers were washed twice with PBS, and then fresh media containing test compounds were added to each well. Test compounds were prepared in DMSO at 5 μM concentration and added to the plates, each in triplicate using DMSO as negative control. The incubation was carried out for 24 h under serum-starved conditions, after which media was removed and cells were fixed and stained using a staining composition sold under the trade name Diff Quick (Dade Behring Diagnostics, Aguada, Puerto Rico). The stain comprised a fixative reagent containing 1.8 mg/L triarylmethane dye in methyl alcohol; a first solution of 1 g/L xanthene dye, buffer, and sodium azide (0.01%) as preservative; and a second solution of 1.25 g/L Thiazine dye mixture (0.625 g/L azure A and 0.625 g/L methylene blue) and buffer. The number of cells migrated on the scratched wound were counted under the microscope in three or more randomly selected fields (magnification: 400×). Final results are expressed as mean±SEM per 400× field. The wound-healing assay is a simple method for the study of directional cell migration in vitro.
Compounds were tested for their ability to inhibit the migration of the highly metastatic MDA-MB-231 human breast cancer cells in the wound-healing assay using the procedure described above. Compounds 6, 10, 12, 13, 24, 26, 27, and 29 inhibited the migration of more than 50% of the human breast cancer cells MDA-MB-231 in the wound healing assay at 5 μM dose. […] The antimigratory activity of tocotrienols may be enhanced by a terminal aromatic functionality. The presence of electron withdrawing group, such as nitro in Compound 29, may eliminate the antiproliferative activity yet retain the antimigratory activity of the compound. While the electron donating groups, such as OH and OMe found in Compounds 23 and 26, respectively, retained both antiproliferative and antimigratory activities.
Utilizing similar procedures follow-up testing was conducted on a variety of compounds using a range of compound concentrations. The results of follow-up antimigratory testing are shown in FIG. 35B and Table III below with IC50 values calculated using statistical software.

[4] = test system: MCF7 human breast cancer cell line; assay: MTT assay of MCF7 cells; format: cell-based; details: Homo sapiens, media containing 1% fetal bovine serum
Description: as §1

[5] = MCF 10A non-tumorigenic cells, Table I, read-out: IC50 MCF 10A
[6] = MCF-10A, MCF10A cells, Table II, non-linear regression, read-out: MCF10A (IC50)

Row | SMILES | IC50 [1] | IC50 [2, 5] | inhibition at 5 µM [3] | IC50 [3] | IC50 [4] | IC50 [2, 6] | Selectivity index [2]
1 | CC(C)=CCC/C(C)=C/CC/C(C)=C/CC[C@]1(C)CCc2c3c(cc(C)c2O1)OCN(CCO)C3 [Compound 10, 2-((R)-6,8-dimethyl-8-((3E,7E)-4,8,12-trimethyltrideca-3,7,11-trienyl)-9,10-dihydrochromeno[5,6-e][1,3]oxazin-2(1H,3H,8H)-yl)ethanol] | > 5 µM | 3100 nM | > 50% | 1.3 µM | 6 µM | – | –
2 | CC(C)=CCC/C(C)=C/CC/C(C)=C/CC[C@]1(C)CCc2c3c(c(C)c(C)c2O1)OCN(CCCO)C3 [Compound 12, 3-((R)-5,6,8-trimethyl-8-((3E,7E)-4,8,12-trimethyltrideca-3,7,11-trienyl)-9,10-dihydrochromeno[5,6-e][1,3]oxazin-2(1H,3H,8H)-yl)propan-1-ol] | 9.6 µM | – | > 50% | 8.1 µM | > 20 µM | – | –
3 | CC(C)=CCC/C(C)=C/CC/C(C)=C/CC[C@]1(C)CCc2c3c(cc(C)c2O1)OCN(CCCCCO)C3 [Compound 18, 5-((R)-6,8-dimethyl-8-((3E,7E)-4,8,12-trimethyltrideca-3,7,11-trienyl)-9,10-dihydrochromeno[5,6-e][1,3]oxazin-2(1H,3H,8H)-yl)pentan-1-ol] | 9 µM | 4600 nM | – | – | 9.1 µM | 4600 nM | 6.57
4 | COc1ccc(CCN2COc3cc(C)c4c(c3C2)CC[C@@](C)(CC/C=C(\C)CC/C=C(\C)CCC=C(C)C)O4)cc1OC [Compound 24, (R)-2-(3,4-dimethoxyphenethyl)-6,8-dimethyl-8-((3E,7E)-4,8,12-trimethyltrideca-3,7,11-trienyl)-1,2,3,8,9,10-hexahydrochromeno[5,6-e][1,3]oxazine] | – | – | > 50% | – | – | – | –
5 | CC(C)=CCC/C(C)=C/CC/C(C)=C/CC[C@]1(C)CCc2c3c(cc(C)c2O1)OCN(CCc1ccc(O)cc1)C3 [Compound 27, 4-(2-((R)-6,8-dimethyl-8-((3E,7E)-4,8,12-trimethyltrideca-3,7,11-trienyl)-9,10-dihydrochromeno[5,6-e][1,3]oxazin-2(1H,3H,8H)-yl)ethyl)phenol] | > 5 µM | 1900 nM | > 50% | 2.4 µM | 18.2 µM | 1900 nM | 2.09
6 | CC(C)=CCC/C(C)=C/CC/C(C)=C/CC[C@]1(C)CCc2c3c(c(C)c(C)c2O1)OCN(CCCCO)C3 [Compound 35, 4-((R)-5,6,8-trimethyl-8-((3E,7E)-4,8,12-trimethyltrideca-3,7,11-trienyl)-9,10-dihydrochromeno[5,6-e][1,3]oxazin-2(1H,3H,8H)-yl)butan-1-ol] | 13.8 µM | – | – | 10.7 µM | > 20 µM | – | –
7 | CC(C)=CCC/C(C)=C/CC/C(C)=C/CC[C@]1(C)CCc2c3c(c(C)c(C)c2O1)OCN(CCCCCCO)C3 [Compound 37, 6-((R)-5,6,8-trimethyl-8-((3E,7E)-4,8,12-trimethyltrideca-3,7,11-trienyl)-9,10-dihydrochromeno[5,6-e][1,3]oxazin-2(1H,3H,8H)-yl)hexan-1-ol] | > 10 µM | – | – | – | > 20 µM | – | –
8 | CC(C)=CCC/C(C)=C/CC/C(C)=C/CC[C@]1(C)CCc2c3c(c(C)c(C)c2O1)OCN(CCCCCCCCO)C3 [Compound 39, 8-((R)-5,6,8-trimethyl-8-((3E,7E)-4,8,12-trimethyltrideca-3,7,11-trienyl)-9,10-dihydrochromeno[5,6-e][1,3]oxazin-2(1H,3H,8H)-yl)octan-1-ol] | > 20 µM | 2000 nM | – | 4.7 µM | > 20 µM | 2000 nM | 1.43
9 | CC(C)=CCC/C(C)=C/CC/C(C)=C/CC[C@]1(C)CCc2c3c(c(C)c(C)c2O1)OCN(CCCCCCCCCCO)C3 [Compound 41, 10-((R)-5,6,8-trimethyl-8-((3E,7E)-4,8,12-trimethyltrideca-3,7,11-trienyl)-9,10-dihydrochromeno[5,6-e][1,3]oxazin-2(1H,3H,8H)-yl)decan-1-ol] | 15.7 µM | – | – | – | 19.4 µM | – | –
10 | CC(C)=CCC/C(C)=C/CC/C(C)=C/CC[C@]1(C)CCc2c3c(cc(C)c2O1)OCN(CCCCCCCCCCO)C3 [Compound 42, 10-((R)-6,8-dimethyl-8-((3E,7E)-4,8,12-trimethyltrideca-3,7,11-trienyl)-9,10-dihydrochromeno[5,6-e][1,3]oxazin-2(1H,3H,8H)-yl)decan-1-ol] | 12.4 µM | – | – | 7.2 µM | 4.6 µM | – | –
11 | CC(C)=CCC/C(C)=C/CC/C(C)=C/CC[C@]1(C)CCc2c3c(c(C)c(C)c2O1)OCN(CCCCCCCCCCCCO)C3 [Compound 43, 12-((R)-5,6,8-trimethyl-8-((3E,7E)-4,8,12-trimethyltrideca-3,7,11-trienyl)-9,10-dihydrochromeno[5,6-e][1,3]oxazin-2(1H,3H,8H)-yl)dodecan-1-ol] | > 50 µM | – | – | – | > 20 µM | – | –
12 | CC(C)=CCC/C(C)=C/CC/C(C)=C/CC[C@]1(C)CCc2c3c(cc(C)c2O1)OCN(CCCCCCCCCCCCO)C3 [Compound 44, 12-((R)-6,8-dimethyl-8-((3E,7E)-4,8,12-trimethyltrideca-3,7,11-trienyl)-9,10-dihydrochromeno[5,6-e][1,3]oxazin-2(1H,3H,8H)-yl)dodecan-1-ol] | > 50 µM | – | – | – | > 20 µM | – | –
